Measurements published in ChEMBL document CHEMBL1126996, “Structure-activity relationships of 6-substituted benzopyran-4-carbothioamide potassium channel openers” (Bioorg Med Chem Lett, 1993).

Legend:
Rattus norvegicus [1] = species: Rattus norvegicus; test: Percent of intrinsic activity for vasorelaxant effect; type: functional
Rattus norvegicus [2] = species: Rattus norvegicus; test: Negative logarithm of the molar concentration required to relax rat aorta precontracted with 30 mM KCl by 50% of IA; type: functional

| Compound | EC50 (Rattus norvegicus [2]) | IA (Rattus norvegicus [1]) |
| --- | --- | --- |
| C/N=C(/S)C1=CC(C)(C)Oc2ccc(Cl)cc21 | 37.2 nM | 73.1% |
| C/N=C(/S)C1=CC(C)(C)Oc2ccc(S(C)(=O)=O)cc21 | 457 nM | 69.8% |
| CCc1ccc2c(c1)C(/C(S)=N\C)=CC(C)(C)O2 | 324 nM | 78.7% |
| C/N=C(/S)C1=CC(C)(C)Oc2ccccc21 | 4270 nM | 89.3% |
| C/N=C(/S)C1=CC(C)(C)Oc2ccc(C#N)cc21 | 24.5 nM | 89% |
| C/N=C(/S)C1=CC(C)(C)Oc2ccc(S(=O)(=O)c3ccccc3)cc21 | 19.1 nM | 73.7% |
| C/N=C(/S)C1=CC(C)(C)Oc2ccc(OC(C)=O)cc21 | 95.5 nM | 76.1% |
| CNC(=S)C1=CC(C)(C)Oc2ccc(OC)cc21 | 417 nM | 61.5% |
| CC1(C)Oc2ccc(C#N)cc2[C@@H](N2CCCC2=O)[C@@H]1O [CROMAKALIM] | 170 nM | 74.7% |

These reach a lower EC50 (Rattus norvegicus [2]). Values come first.

| EC50 (Rattus norvegicus [2]) | Compound | IA (Rattus norvegicus [1]) |
| --- | --- | --- |
| 12.6 nM | C/N=C(/S)C1=CC(C)(C)Oc2ccc(C(F)(F)C(F)(F)F)cc21 | 55.4% |
| 1.35 nM | C/N=C(/S)C1=CC(C)(C)Oc2ccc([N+](=O)[O-])cc21 | 63.5% |
| 4.07 nM | C/N=C(/S)C1=CC(C)(C)Oc2ccc(OC(F)(F)F)cc21 | 76.1% |
| 9.33 nM | C/N=C(/S)C1=CC(C)(C)Oc2ccc(Br)cc21 | 67.5% |
| 2.04 nM | C/N=C(/S)C1=CC(C)(C)Oc2ccc(C(F)(F)F)cc21 | 73% |
